In one experiment the target is T1, Lysyl oxidase homolog 2 (Homo sapiens, UniProt Q9Y4K0).
T1 sequence (Q9Y4K0 whole entry): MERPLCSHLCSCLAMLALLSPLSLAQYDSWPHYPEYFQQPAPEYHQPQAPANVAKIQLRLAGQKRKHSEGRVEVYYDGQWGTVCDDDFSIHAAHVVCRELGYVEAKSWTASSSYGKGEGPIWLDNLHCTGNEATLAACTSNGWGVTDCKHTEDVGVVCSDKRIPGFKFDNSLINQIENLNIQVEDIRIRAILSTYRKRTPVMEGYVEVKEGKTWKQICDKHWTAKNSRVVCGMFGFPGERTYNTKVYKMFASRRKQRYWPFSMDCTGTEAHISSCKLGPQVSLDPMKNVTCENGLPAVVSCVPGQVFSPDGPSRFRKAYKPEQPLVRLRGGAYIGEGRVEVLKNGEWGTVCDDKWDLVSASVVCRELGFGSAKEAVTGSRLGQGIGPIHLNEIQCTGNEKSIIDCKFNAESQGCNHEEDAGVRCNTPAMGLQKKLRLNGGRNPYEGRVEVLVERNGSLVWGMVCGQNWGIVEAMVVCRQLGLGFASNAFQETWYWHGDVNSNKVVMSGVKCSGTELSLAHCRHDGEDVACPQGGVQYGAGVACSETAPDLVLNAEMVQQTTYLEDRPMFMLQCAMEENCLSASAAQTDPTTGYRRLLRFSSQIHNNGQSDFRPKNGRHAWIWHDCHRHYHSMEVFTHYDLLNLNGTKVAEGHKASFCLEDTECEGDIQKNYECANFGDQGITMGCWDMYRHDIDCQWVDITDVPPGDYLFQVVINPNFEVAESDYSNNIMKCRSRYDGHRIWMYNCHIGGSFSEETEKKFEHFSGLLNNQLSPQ
In words: Amine Oxidase Activity Assay: Table 4: LOXL2 amine oxidase activity was evaluated by measuring Amplex Red fluorescence using 10-20× concentrated conditioned media from CHO cells stably expressing human LOXL2. To assay for amine oxidase activity, 10 μL of the concentrated conditioned media was incubated with 2 μL of test compound in DMSO and 73 μL Assay Buffer (50 mM Borate Buffer, pH8) for 2 h at 37° C. After the 2 h incubation, 5 μL of 10 mM 1,5-Diaminopentane (DAP) diluted in Assay Buffer and 10 μL of Amplex Red Mix (8.5 μL Assay Buffer+0.5 μL of 10 mM Amplex Red+1 μL of 500 U/ml Horseradish Peroxidase) were added and the plate mixed and immediately placed on the FlexStation for fluorescence measurements. Fluorescence was read in kinetic mode every 2 min for 0.5-1 hour at excitation=544 and emission=590. The amine oxidase activity was calculated from the slope of the linear portion of the curve. Wells containing vehicle (DMSO) represented maximum activity and were set to 0% inhibition and wells containing 100 μM βAPN (3-aminopropionitrile) represented no activity and were set to 100% inhibition.

In experiment [1] the target is T2, Mitogen-activated protein kinase kinase kinase 5 (Homo sapiens, UniProt Q99683).
T2 sequence (Q99683 whole entry): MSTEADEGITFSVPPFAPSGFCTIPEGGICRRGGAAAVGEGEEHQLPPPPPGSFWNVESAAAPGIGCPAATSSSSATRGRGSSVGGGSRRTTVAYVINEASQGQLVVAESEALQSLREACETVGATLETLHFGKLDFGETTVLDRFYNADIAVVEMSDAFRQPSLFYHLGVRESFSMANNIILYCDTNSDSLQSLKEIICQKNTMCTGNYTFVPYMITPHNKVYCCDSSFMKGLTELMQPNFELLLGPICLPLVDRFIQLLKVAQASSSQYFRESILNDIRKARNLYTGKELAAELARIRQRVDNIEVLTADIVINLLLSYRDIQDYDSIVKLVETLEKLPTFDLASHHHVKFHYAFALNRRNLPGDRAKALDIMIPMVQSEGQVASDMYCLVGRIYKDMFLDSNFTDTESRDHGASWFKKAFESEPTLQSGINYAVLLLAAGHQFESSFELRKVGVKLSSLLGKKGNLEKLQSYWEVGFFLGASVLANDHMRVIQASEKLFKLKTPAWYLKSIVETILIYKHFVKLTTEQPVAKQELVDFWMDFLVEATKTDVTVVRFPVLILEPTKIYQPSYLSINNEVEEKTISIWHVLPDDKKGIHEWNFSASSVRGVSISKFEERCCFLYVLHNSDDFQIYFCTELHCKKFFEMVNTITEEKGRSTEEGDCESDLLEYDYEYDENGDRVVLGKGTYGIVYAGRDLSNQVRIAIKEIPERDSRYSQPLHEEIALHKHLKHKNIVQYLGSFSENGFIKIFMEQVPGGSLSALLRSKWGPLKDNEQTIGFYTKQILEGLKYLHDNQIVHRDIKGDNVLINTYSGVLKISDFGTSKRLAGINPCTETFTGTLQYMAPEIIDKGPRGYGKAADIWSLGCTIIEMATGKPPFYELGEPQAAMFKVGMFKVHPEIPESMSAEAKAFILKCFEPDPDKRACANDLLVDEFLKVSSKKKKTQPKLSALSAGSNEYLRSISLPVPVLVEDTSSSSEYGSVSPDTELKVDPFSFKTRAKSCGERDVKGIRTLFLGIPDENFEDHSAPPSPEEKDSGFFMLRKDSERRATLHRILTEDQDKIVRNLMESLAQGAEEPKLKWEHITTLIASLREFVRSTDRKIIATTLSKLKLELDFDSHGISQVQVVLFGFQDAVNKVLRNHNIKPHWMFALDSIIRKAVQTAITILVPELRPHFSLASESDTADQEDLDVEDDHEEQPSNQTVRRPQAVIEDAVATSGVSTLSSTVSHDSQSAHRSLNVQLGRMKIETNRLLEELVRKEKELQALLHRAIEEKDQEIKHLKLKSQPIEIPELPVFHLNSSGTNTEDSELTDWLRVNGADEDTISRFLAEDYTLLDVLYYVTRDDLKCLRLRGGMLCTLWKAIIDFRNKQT
In words: ADP-Glo Assay: Table 3: The ability of test compounds to inhibit ASK1 kinase activity was determined using the luminescent ADP-Glo™ Kinase Assay and Myelin Basic Protein (MBP) as a substrate (Promega Corporation, Madison, Wis.). During the kinase reaction, ASK1 utilizes ATP and generates ADP. The remaining ATP is then depleted by addition of the ADP-Glo™ reagent which also terminates the reaction. Subsequent addition of the Kinase Detection Reagent converts the ADP that was produced during the kinase reaction to ATP, and this newly synthesized ATP is converted to light using the luciferase/luciferin reactions. The assay was performed according to the manufacturer's instructions. Briefly, purified, recombinant ASK1 (amino acids 649-946) (10-20 ng/well) was added to a 384-well, F bottom, small volume, HIbase, white plate (Greiner Bio-One, Monroe, N.C. #784075) containing 1-2 μL 5× test compound or vehicle control (diluted 1:20 from a 100% DMSO stock solution into 1× Reaction Buffer A). The enzyme was allowed to pre-incubate with test compound from 15-120 min at 30° C. before the addition of the ATP/substrate mix (final concentrations of 50 μM ATP+250 ng MBP in 1× Reaction Buffer A). The mixture was then incubated at room temperature for 40 min before the addition of ADP-Glo™ reagent and a second 40 minute room temperature incubation. […].

In the case of `NCc1cc(Oc2ccnc(C(=O)Nc3cccc(-c4nncn4C4CC4)c3)c2)nc(C(F)(F)F)c1`, the IC50 was under 300 nM at Lysyl oxidase homolog 2 and over 1000 nM in experiment [1].
